These results are taken from patent US20260256756A1, “USE OF PIPERIDINE ALKENE COMPOUND IN PREPARATION OF DRUG FOR TREATING CANCER” (JIANGSU HANSOH PHARMACEUTICAL GROUP CO., LTD., priority 2023, published 2026).

Assay [1] has as its system human ovarian cancer OV-10-0060 xenograft tumor. As to the kind of experiment: Subcutaneous xenograft tumor model of human ovarian cancer OV-10-0060. The class given is in vivo, BALB/c nude mice. From the text:
• 1. Experimental objective: To evaluate the in vivo efficacy of the compound in a subcutaneous xenograft tumor model of human ovarian cancer OV-10-0060 in nude mice. • 2. Reagent • HPMC (A1921068, Shanghai Aladdin Biochemical Technology Co., Ltd.), DMEM medium (11995-065, Gibco) • 3. Experimental operations and data processing • 3.1 Animals: BALB/c nude mice, 6-8 weeks old, female, purchased from the Laboratory Animal Business Department of Shanghai Institute of Planned Parenthood Research. • 3.2 Animal modeling • Tumor tissues were harvested from ovarian cancer xenograft model OV-10-0060 tumor-bearing mice and cut into tumor fragments with a diameter of 2-3 mm, which were subcutaneously inoculated into the right anterior scapula region of BALB/c nude mice. • 3.3 Tumor measurement and grouping in tumor-bearing mice • Prior to drug administration, all animals were weighed, and tumor volumes were measured using a vernier caliper. The tumor volume was calculated as: tumor volume (mm^3)=length (mm)×width (mm)×width (mm)/2. According to the body weight of tumor-bearing mice and the size of the tumor, the mice were grouped by random grouping. • 3.4 Administration in tumor-bearing mice • According to the grouping results, the test drug was started to be administered (administration method: oral administration; administration volume: 10 mL/kg; administration frequency: once/day; administration cycle: 28 days; vehicle: 0.5% HPMC). Tumor measurement and weighing were performed twice a week after starting administration of test drugs. The animals were euthanized at the end of the experiment. • 3.5 Data processing • Data processing was performed using software such as GraphPad Prism. The tumor inhibitory efficacy of the compound was evaluated by TGI (%) and ΔT/ΔC (%). ΔT/ΔC (%)=(T−T0)/(C−C0)×100, where T and C are the tumor volumes of the treatment group and the vehicle control group at the end of the experiment, respectively, and T0 and C0 are the tumor volumes of the treatment group and the vehicle control group at the beginning of the experiment, respectively. Tumor growth inhibition (TGI) (%)=100−ΔT/ΔC (%). Tumor growth inhibition (TGI) (%)=100−(T−T0)/T0×100 when tumor regression occurs • 4. Experimental results and conclusions
In general terms: In xenograft studies the graft and the host belong to different species.

Assay [2] deals with BRCA2 Knockout DLD-1 cells. As to the kind of experiment: In vitro proliferation inhibition (CellTiter-Glo), BRCA2 Knockout DLD-1. The class given is cell-based. As to conditions: Homo sapiens; DLD-1, colorectal cancer, BRCA2 deletion; 6-10 days culture. From the text: […]
Experimental data processing method: The luminescence signal value was used to calculate the inhibition rate. […]
On the technique in general: Cellular ATP, detected with luciferase, serves as a proxy for viable cell number.

[3] abbreviates: OV-10-0060, 10 mg/kg oral once/day, Day 27.
Setting [4] is: OV-10-0060, 100 mg/kg oral once/day, Day 27.

As to `CCc1cc2ncc(CN3CCN(c4ccc(C(=O)NC)nc4)CC3)cc2[nH]c1=O` [AZD5305], in assay [1] (OV-10-0060, 10 mg/kg oral once/day, Day 0), the “Tumor volume (Mean ± SEM)” value is listed as 124 ± 4 mm^3. Further, in assay [1] (setting [3]), the T/C (in general, the result in the treated group divided by that in the control group, in per cent) is reported as 61.08%; the inhibition of tumour growth (TGI) (in general, the reduction of tumour growth relative to the control group) is recorded as 41.19%; the “Tumor volume (Mean ± SEM)” value is given as 1,378 ± 99 mm^3. Besides, the IC50 (commonly the concentration that gives 50% inhibition) in assay [2] turned out to be 0.0026 ± 0.0006 µM.
In the case of `O=C(c1cc(Cc2n[nH]c(=O)c3ccccc23)ccc1F)N1CCN(C(=O)C2CC2)CC1` [Olaparib], the “Tumor volume (Mean ± SEM)” value in assay [1] (OV-10-0060, 100 mg/kg oral once/day, Day 0) is given as 124 ± 4 mm^3. In assay [1] (setting [4]), the T/C stood at 79.24%, the TGI was 22.00% and the “Tumor volume (Mean ± SEM)” value is given as 1,787 ± 158 mm^3. Further, the IC50 in assay [2] came out at 0.16 ± 0.066 µM.
